{"source": "patent US20160052898A1", "about": "“NOVEL COMPOUNDS” (BAYER PHARMA AKTIENGESELLSCHAFT, priority 2013, published 2016)", "key": {"[1]": {"test_system": "constitutive active colorectal cancer cell (CRC) Wnt pathway", "test": "HCT116 Super TopFlash cellular reporter assay (constitutive active Wnt pathway)", "assay_type": "cell-based", "details": "HCT116 TOP reporter cells, luciferase expression, 36 hours incubation, 50 μM to 15 nM", "method_in_brief": "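Luciferase luminescence served as the Wnt read-out after 36 h of compound treatment at 37 °C. Compound came from a pre-dilution series (50 μM down to 15 nM, 3.16-fold steps) in CAFTY buffer. Cells were stable HCT116 TOP reporter cells, with matched FOP-vector control cells tested in parallel, seeded a day earlier.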"}, "[2]": {"test_system": "HCT116 FOP control reporter cell line", "test": "HCT116 FOP control vector reporter assay (non-functional TCF elements)", "assay_type": "cell-based", "details": "HCT116 FOP control reporter cells, luciferase expression, 36 hours incubation, 50 μM to 15 nM, read-out: HCT116 FOPFlash IC50", "method_in_brief": "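Stable HCT116 line carrying the non-functional FOP luciferase construct, 10000 cells/well plated 24 hrs before. Compounds 50 μM to 15 nM (3.16-fold steps) in CAFTY buffer pH 7.4 with 2 mM Ca2+, 36 hours at 37° C; luciferase luminescence read.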"}}, "note": "pIC50: −log10 of the molar value. Read-outs that look alike come from different tables or passages of the source."}
{"molecule": "COCc1ccc(C(=O)Nc2ccc(-c3ccccc3)cc2)cc1NC(=O)CN1CCOCC1", "note": "[Example 165, N-(biphenyl-4-yl)-4-(methoxymethyl)-3-[(morpholin-4-ylacetyl)amino]benzamide]", "values": [{"measurement": "pIC50", "setting": "[1]; Homo sapiens, HCT-116, 36 h", "value": 6.87}, {"measurement": "pIC50", "setting": "[2]; Homo sapiens, HCT-116, 36 h", "value": "≤ 4.30"}]}
{"molecule": "COCc1ccc(C(=O)Nc2ccc(-c3ccccc3)cc2)cc1NC(=O)C(C)N1CC2CCC(C1)O2", "note": "(stereo not drawn) [Example 170, N-(biphenyl-4-yl)-4-(methoxymethyl)-3-{(2-(8-oxa-3-azabicyclo[3.2.1]oct-3-yl)propanoyl)amino} benzamide]", "values": [{"measurement": "pIC50", "setting": "[1]; Homo sapiens, HCT-116, 36 h", "value": 6.75}, {"measurement": "pIC50", "setting": "[2]; Homo sapiens, HCT-116, 36 h", "value": 5.13}]}
{"molecule": "O=C(Nc1ccc(F)c(NC(=O)C2(N3CCOCC3)CC2)c1)c1ccc(-c2ccccc2)cc1", "note": "[Example 171, N-[4-fluoro-3-({[1-(morpholin-4-yl)cyclopropyl]carbonyl}amino)phenyl]biphenyl-4-carboxamide]", "values": [{"measurement": "pIC50", "setting": "[1]; Homo sapiens, HCT-116, 36 h", "value": 6.70}, {"measurement": "pIC50", "setting": "[2]; Homo sapiens, HCT-116, 36 h", "value": "≤ 4.30"}]}
{"molecule": "COC1CCN(CC(=O)Nc2cc(C(=O)Nc3ccc(-c4ccccc4)cc3)ccc2OC2CC2)C1", "note": "(stereo not drawn) [Example 174, N-(biphenyl-4-yl)-4-(cyclopropyloxy)-3-{[(3-methoxypyrrolidin-1-yl)acetyl)amino}benzamide]", "values": [{"measurement": "pIC50", "setting": "[1]; Homo sapiens, HCT-116, 36 h", "value": 6.67}, {"measurement": "pIC50", "setting": "[2]; Homo sapiens, HCT-116, 36 h", "value": "≤ 4.30"}]}
{"molecule": "COCc1ccc(C(=O)Nc2ccc(-c3ccccc3)cc2)cc1NC(=O)CN1C[C@@H]2C[C@H]1CO2", "note": "[Example 175, N-(biphenyl-4-yl)-4-(methoxymethyl)-3-{[(1S,4S)-2-oxa-5-azabicyclo[2.2.1]hept-5-ylacetyl)amino}benzamide]", "values": [{"measurement": "pIC50", "setting": "[1]; Homo sapiens, HCT-116, 36 h", "value": 6.66}, {"measurement": "pIC50", "setting": "[2]; Homo sapiens, HCT-116, 36 h", "value": 5.14}]}
{"molecule": "COCCCOCc1ccc(C(=O)Nc2ccc(-c3ccccc3)cc2)cc1NC(=O)CN1CC2CCC(C1)O2", "note": "[Example 176, N-(biphenyl-4-yl)-4-[(3-methoxypropoxy)methyl]-3-[(8-oxa-3-azabicyclo[3.2.1]oct-3-ylacetyl)amino]benzamide]", "values": [{"measurement": "pIC50", "setting": "[1]; Homo sapiens, HCT-116, 36 h", "value": 6.59}, {"measurement": "pIC50", "setting": "[2]; Homo sapiens, HCT-116, 36 h", "value": 5.47}]}
{"molecule": "CC(C(=O)Nc1cc(NC(=O)c2ccc(-c3ccccc3)cc2)ccc1C(F)(F)F)N1CC2CCC(C1)O2", "note": "(stereo not drawn) [Example 178, N-[3-{[2-(8-oxa-3-azabicyclo[3.2.1]oct-3-yl)propanoyl]amino}-4-(trifluoromethyl)phenyl) biphenyl-4-carboxamide]", "values": [{"measurement": "pIC50", "setting": "[1]; Homo sapiens, HCT-116, 36 h", "value": 6.55}, {"measurement": "pIC50", "setting": "[2]; Homo sapiens, HCT-116, 36 h", "value": 4.32}]}
{"molecule": "O=C(CN1C[C@H]2C[C@@H]1CO2)Nc1cc(C(=O)Nc2ccc(-c3ccccc3)cc2)ccc1OC1CC1", "note": "[Example 181, N-(biphenyl-4-yl)-4-(cyclopropyloxy)-3-{[(1R,4R)-2-oxa-5-azabicyclo[2.2.1]hept-5-ylacetyl]amino}benzamide]", "values": [{"measurement": "pIC50", "setting": "[1]; Homo sapiens, HCT-116, 36 h", "value": 6.52}, {"measurement": "pIC50", "setting": "[2]; Homo sapiens, HCT-116, 36 h", "value": "≤ 4.30"}]}
{"molecule": "O=C(CN1CCOCC1)Nc1cc(NC(=O)c2ccc(-c3ccccc3)cc2)ccc1C(F)(F)F", "note": "[Example 183, N-{3-[(morpholin-4-ylacetyl)amino]-4-(trifluoromethyl)phenyl} biphenyl-4-carboxamide]", "values": [{"measurement": "pIC50", "setting": "[1]; Homo sapiens, HCT-116, 36 h", "value": 6.46}, {"measurement": "pIC50", "setting": "[2]; Homo sapiens, HCT-116, 36 h", "value": "≤ 4.30"}]}
{"molecule": "O=C(CN1CCOCC1)Nc1cc(C(=O)Nc2ccc(-c3ccccc3)cc2)ccc1OC(F)F", "note": "[Example 184, N-(biphenyl-4-yl)-4-(difluoromethoxy)-3-[(morpholin-4-ylacetyl)amino]benzamide]", "values": [{"measurement": "pIC50", "setting": "[1]; Homo sapiens, HCT-116, 36 h", "value": 6.46}, {"measurement": "pIC50", "setting": "[2]; Homo sapiens, HCT-116, 36 h", "value": "≤ 4.30"}]}
{"molecule": "COc1ccc(NC(=O)c2ccc(-c3ccccc3)cc2)cc1NC(=O)C1(N2CCN(C3CC3)CC2)CC1", "note": "[Example 185, N-[3-({[l-(4-cyclopropylpiperazin-1-yl)cyclopropyl]carbonyl}amino}-4-melhoxyphenyl)biphenyl-4-carboxamide]", "values": [{"measurement": "pIC50", "setting": "[1]; Homo sapiens, HCT-116, 36 h", "value": 6.43}, {"measurement": "pIC50", "setting": "[2]; Homo sapiens, HCT-116, 36 h", "value": "≤ 4.30"}]}
{"molecule": "COC1CN(CC(=O)Nc2cc(C(=O)Nc3ccc(-c4ccccc4)cc3)ccc2OC2CC2)C1", "note": "[Example 186, N-(biphenyl-4-yl)-4-(cyclopropyloxy)-3-{[(3-methoxyazetidin-1-yl)acetyl]amino}benzamide]", "values": [{"measurement": "pIC50", "setting": "[1]; Homo sapiens, HCT-116, 36 h", "value": 6.41}, {"measurement": "pIC50", "setting": "[2]; Homo sapiens, HCT-116, 36 h", "value": "≤ 4.30"}]}
{"molecule": "COCc1ccc(C(=O)Nc2ccc(-c3ccccc3)cc2)cc1NC(=O)Cn1cccn1", "note": "[Example 187, N-(biphenyl-4-yl)-4-(methoxymethyl)-3-[(1H-pyrazol-1-ylacetyl)amino]benzamide]", "values": [{"measurement": "pIC50", "setting": "[1]; Homo sapiens, HCT-116, 36 h", "value": 6.37}, {"measurement": "pIC50", "setting": "[2]; Homo sapiens, HCT-116, 36 h", "value": "≤ 4.30"}]}
{"molecule": "CN(C)C1(C(=O)Nc2cc(NC(=O)c3ccc(-c4ccccc4)cc3)ccc2OC(F)(F)F)CC1", "note": "[Example 188, N-[3-({[1-(dimethylamino)cyclopropyl]carbonyl}amino)-4-(trifluoromethoxy)phenyl] biphenyl-4-carboxamide]", "values": [{"measurement": "pIC50", "setting": "[1]; Homo sapiens, HCT-116, 36 h", "value": 6.34}, {"measurement": "pIC50", "setting": "[2]; Homo sapiens, HCT-116, 36 h", "value": 4.48}]}
{"molecule": "COc1ccc(NC(=O)c2ccc(-c3ccccc3)cc2)cc1NC(=O)C1(N(C)C)CC1", "note": "[Example 189, N-[3-({[1-(dimethylamino)cyclopropyl]carbonyl}amino)-4-methoxyphenyl]biphenyl-4-carboxamide]", "values": [{"measurement": "pIC50", "setting": "[1]; Homo sapiens, HCT-116, 36 h", "value": 6.32}, {"measurement": "pIC50", "setting": "[2]; Homo sapiens, HCT-116, 36 h", "value": "≤ 4.30"}]}
{"molecule": "O=C(CN1C[C@H]2C[C@@H]1CO2)Nc1cc(C(=O)Nc2ccc(-c3ccccc3)cc2)ccc1C(F)(F)F", "note": "[Example 190, N-(biphenyl-4-yl)-3-{[(1R,4R)-2-oxa-5-azabicyclo[2.2.1]hept-5-ylacetyl]amino}-4-(trifluoromethyl)benzamide]", "values": [{"measurement": "pIC50", "setting": "[1]; Homo sapiens, HCT-116, 36 h", "value": 6.25}, {"measurement": "pIC50", "setting": "[2]; Homo sapiens, HCT-116, 36 h", "value": "≤ 4.30"}]}
{"molecule": "O=C(CN1CCOCC1)Nc1cc(C(=O)Nc2ccc(-c3ccccc3)cc2)ccc1C(=O)NCCN1CCCC1", "note": "[Example 191, N4-(biphenyl-4-yl)-2-[(morpholin-4-ylacetyl)amino]-N1-[2-(pyrrolidin-1-yl)ethyl]terephthalamide]", "values": [{"measurement": "pIC50", "setting": "[1]; Homo sapiens, HCT-116, 36 h", "value": 6.15}, {"measurement": "pIC50", "setting": "[2]; Homo sapiens, HCT-116, 36 h", "value": 4.92}]}
{"molecule": "O=C(CN1C[C@@H]2C[C@H]1CO2)Nc1cc(C(=O)Nc2ccc(-c3ccccc3)cc2)ccc1OC1CC1", "note": "[Example 192, N-(biphenyl-4-yl)-4-(cyclopropyloxy)-3-{[(1S,4S)-2-oxa-S-azabicyclo[2.2.1]hept-5-ylacetyl]amino}benzamide]", "values": [{"measurement": "pIC50", "setting": "[1]; Homo sapiens, HCT-116, 36 h", "value": 6.11}, {"measurement": "pIC50", "setting": "[2]; Homo sapiens, HCT-116, 36 h", "value": "≤ 4.30"}]}
{"molecule": "COCCOCc1ccc(C(=O)Nc2ccc(-c3ccccc3)cc2)cc1NC(=O)CN1CC2CCC(C1)O2", "note": "[Example 193, N-(biphenyl-4-yl)-4-[(2-methoxyethoxy)methyl]-3-[(8-oxa-3-azabicyclo[3.2.1]oct-3-ylacetyl)amino]benzamide]", "values": [{"measurement": "pIC50", "setting": "[1]; Homo sapiens, HCT-116, 36 h", "value": 6.09}, {"measurement": "pIC50", "setting": "[2]; Homo sapiens, HCT-116, 36 h", "value": 4.77}]}
{"molecule": "Cc1noc(-c2ccc(C(=O)Nc3ccc(-c4ccccc4)cc3)cc2NC(=O)CN2CCOCC2)n1", "note": "[Example 194, N-(biphenyl-4-yl)-4-(3-methyl-1,2,4-oxadiazol-5-yl)-3-[(morpholin-4-ylacetyl)amino]benzamide]", "values": [{"measurement": "pIC50", "setting": "[1]; Homo sapiens, HCT-116, 36 h", "value": 6.06}, {"measurement": "pIC50", "setting": "[2]; Homo sapiens, HCT-116, 36 h", "value": "≤ 4.30"}]}
{"molecule": "COc1ccc(NC(=O)c2ccc(-c3ccc(O)cc3)cc2)cc1NC(=O)CN1CCOCC1", "note": "[Example 195, 4′-hydroxy-N-{4-methoxy-3-[(morpholin-4-ylacetyl)amino)phenyl} biphenyl-4-carboxamide]", "values": [{"measurement": "pIC50", "setting": "[1]; Homo sapiens, HCT-116, 36 h", "value": 6.01}, {"measurement": "pIC50", "setting": "[2]; Homo sapiens, HCT-116, 36 h", "value": 4.41}]}
{"molecule": "COc1ccc(NC(=O)c2ccc(-c3cc(F)cc(F)c3)cc2F)cc1NC(=O)CN1CCOCC1", "note": "[Example 196, 3,3′,5′-trifluoro-N-{4-methoxy-3-[(morpholin-4-ylacetyl)amino]phenyl} biphenyl-4-carboxamide]", "values": [{"measurement": "pIC50", "setting": "[1]; Homo sapiens, HCT-116, 36 h", "value": 5.93}, {"measurement": "pIC50", "setting": "[2]; Homo sapiens, HCT-116, 36 h", "value": 4.89}]}
{"molecule": "CC(C(=O)Nc1cc(NC(=O)c2ccc(-c3ccccc3)cc2)ccc1C(F)(F)F)N1CC2CCC(C1)O2", "note": "(stereo not drawn) [Example 197, N-[3-{[(2S*)-2-(8-oxa-3-azabicydo[3.2.1]oct-3-yl)propanoyl]amino}-4-(trifluoromethyl)phenyl) biphenyl-4-carboxamide]", "values": [{"measurement": "pIC50", "setting": "[1]", "value": 5.83}, {"measurement": "pIC50", "setting": "[2]", "value": "≤ 4.30"}]}
{"molecule": "COc1ccc(NC(=O)c2ccc(-c3ccc(N(C)C)cc3)cc2)cc1NC(=O)CN1CCOCC1", "note": "[Example 198, 4′-(dimethylamino)-N-{4-methoxy-3-[(morpholin-4-ylacetyl)amino]phenyl} biphenyl-4-carboxamide]", "values": [{"measurement": "pIC50", "setting": "[1]; Homo sapiens, HCT-116, 36 h", "value": 5.82}, {"measurement": "pIC50", "setting": "[2]; Homo sapiens, HCT-116, 36 h", "value": "≤ 4.30"}]}
